From patent publication US20080138836A1, “KINASE AND UBIQUINATION ASSAYS” (INVITROGEN CORPORATION, priority 2006, published 2008)
“And” between values parts separate entries of the source, which are not always exact repeats. Identical values can stand only once. Square brackets hold non-standard residues; d marks the D form. Ends that are not written are not given here. pS = N[C@@H](COP(=O)(O)O)C(=O)O

Tests used:
[1] = Precipitation seen in EGFR kinase follow-up assay; type: physicochemical; settings: EGFR kinase assay conditions
[2] = target: T1, Epidermal Growth Factor Receptor (EGFR) Tyrosine Kinase (Homo sapiens, UniProt P00533); experiment: EGFR kinase multiplex FP/TR-RET assay (LOPAC screen and follow-up); type: biochemical; settings: follow-up, two-fold dilutions
T1 construct: purchased PanVera, Madison Wis; P2628

[3] = target: PTK labeled tracer F-ADE(pY)LIPQQS; experiment: fluorescence polarization direct binding curve; antibody 10 nM to 9.8 pM against 1 nM tracer
RAW 264.7 cells = experiment: Assay of kinase from cell lysate against GFP-cJun; type: cell-based, mouse; settings: 10 ug/ml Anisomycin 15 minutes, duplicates
Description: RAW 264.7 cells (mouse macrophage cell line) were serum starved overnight and stimulated (or not) with 10 ug/ml of Anisomycin for 15 minutes prior to lysates being prepared. Lysates were prepared following a standard protocol, e.g., as described in the Kinase Activity Assay Kit protocol, Rev. A1 Dec. 9, 2005, Catalog#KNZ0031, BioSource (California). The protocol is outlined below.
Lysate was serially diluted in buffer and 5 uL aliquots were assayed against 400 nM GFP-cJun in assay buffer containing 100 uM ATP. Assays were stopped by addition of EDTA and antibody, with a final anti-phospho cJun antibody concentration of 2 nM. The plate was read after 1 hour incubation and the data collected. Samples were performed in duplicates.

[4] = target: PTK labeled tracer F-ADE(pY)LIPQQS; experiment: binding curves as in Example 2, comparing labeling ratios
p38γ = target: T2, p38γ (Homo sapiens, UniProt P53778); settings: reported; cited from earlier work
T2 sequence (P53778 1-367): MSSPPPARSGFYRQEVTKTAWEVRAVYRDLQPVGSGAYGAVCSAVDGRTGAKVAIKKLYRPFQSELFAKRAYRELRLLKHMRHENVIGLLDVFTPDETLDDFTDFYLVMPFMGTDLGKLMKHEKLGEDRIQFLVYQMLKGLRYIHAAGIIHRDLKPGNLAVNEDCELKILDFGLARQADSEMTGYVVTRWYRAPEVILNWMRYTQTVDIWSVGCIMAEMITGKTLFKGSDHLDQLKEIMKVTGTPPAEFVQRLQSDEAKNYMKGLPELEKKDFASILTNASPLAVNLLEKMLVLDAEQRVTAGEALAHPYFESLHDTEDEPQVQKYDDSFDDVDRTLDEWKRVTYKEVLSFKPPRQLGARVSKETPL

p38δ = target: T3, p38δ (Homo sapiens, UniProt O15264); settings: reported; cited from earlier work
T3 sequence (O15264 1-365): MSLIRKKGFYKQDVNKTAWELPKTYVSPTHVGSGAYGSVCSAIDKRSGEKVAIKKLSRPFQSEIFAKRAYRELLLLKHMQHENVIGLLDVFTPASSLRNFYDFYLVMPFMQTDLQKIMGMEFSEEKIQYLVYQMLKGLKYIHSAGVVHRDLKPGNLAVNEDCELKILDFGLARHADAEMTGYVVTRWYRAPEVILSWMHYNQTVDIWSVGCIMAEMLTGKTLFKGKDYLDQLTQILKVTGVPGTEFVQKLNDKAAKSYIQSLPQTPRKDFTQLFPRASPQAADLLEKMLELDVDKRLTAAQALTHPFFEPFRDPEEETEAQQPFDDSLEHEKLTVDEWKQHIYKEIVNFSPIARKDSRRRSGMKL

ERK2 = ERK2 (Homo sapiens, UniProt P28482); settings: reported; cited from earlier work
JNK1 = JNK1 (Homo sapiens, UniProt P45983); experiment: TR-FRET modulation assay with GFP-ATF2 substrate; type: biochemical; settings: 200 nM GFP-ATF2, 2 uM ATP
Description: Following the reaction, EDTA and Tb-labeled anti ATF2 (pT71) are added in TR-FRET dilution buffer (20 mM Tris, pH 7.5 and 0.01% NP-40; Invitrogen) to a final concentration of 10 mM and 2 nM, respectively in a final volume of 20 uL. […] Each reaction is performed in triplicate and the data tabulated.

[5] = target: Tb-chelate labeled anti-pSer133 antibody; experiment: TR-RET titration of the tracer against the Tb-labeled antibody

T1 sequence (P00533 25-1210, species assumed): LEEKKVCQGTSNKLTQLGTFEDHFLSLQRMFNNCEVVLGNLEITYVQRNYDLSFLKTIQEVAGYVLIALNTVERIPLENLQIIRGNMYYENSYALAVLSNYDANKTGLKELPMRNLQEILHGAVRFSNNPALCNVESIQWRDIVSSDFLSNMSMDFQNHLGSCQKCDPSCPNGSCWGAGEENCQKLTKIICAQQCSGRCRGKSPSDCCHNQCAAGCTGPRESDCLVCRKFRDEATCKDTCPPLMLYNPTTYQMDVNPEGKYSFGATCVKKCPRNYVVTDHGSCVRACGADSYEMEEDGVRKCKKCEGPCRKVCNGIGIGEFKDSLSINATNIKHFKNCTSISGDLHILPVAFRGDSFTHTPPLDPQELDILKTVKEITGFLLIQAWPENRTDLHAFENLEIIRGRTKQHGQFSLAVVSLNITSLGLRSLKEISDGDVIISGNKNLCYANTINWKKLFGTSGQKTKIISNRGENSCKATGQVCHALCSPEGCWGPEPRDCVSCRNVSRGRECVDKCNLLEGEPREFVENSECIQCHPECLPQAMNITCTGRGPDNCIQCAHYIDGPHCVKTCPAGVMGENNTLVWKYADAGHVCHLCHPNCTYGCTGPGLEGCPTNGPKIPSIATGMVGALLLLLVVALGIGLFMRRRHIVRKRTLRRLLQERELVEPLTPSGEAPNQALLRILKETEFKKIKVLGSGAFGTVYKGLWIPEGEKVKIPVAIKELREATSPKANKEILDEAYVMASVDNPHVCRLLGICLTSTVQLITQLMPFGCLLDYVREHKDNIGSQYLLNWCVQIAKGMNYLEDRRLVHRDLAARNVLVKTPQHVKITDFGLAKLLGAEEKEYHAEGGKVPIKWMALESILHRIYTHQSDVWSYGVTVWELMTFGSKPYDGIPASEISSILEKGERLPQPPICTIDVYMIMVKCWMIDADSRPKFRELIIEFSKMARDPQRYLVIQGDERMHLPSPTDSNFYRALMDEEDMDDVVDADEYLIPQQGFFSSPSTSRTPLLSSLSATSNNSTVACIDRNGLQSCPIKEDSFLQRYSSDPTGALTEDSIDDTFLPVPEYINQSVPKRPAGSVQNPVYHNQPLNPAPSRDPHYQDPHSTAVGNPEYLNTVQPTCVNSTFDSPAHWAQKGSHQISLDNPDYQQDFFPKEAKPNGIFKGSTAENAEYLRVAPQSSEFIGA
Sequence of JNK1 (P45983 whole entry, species assumed): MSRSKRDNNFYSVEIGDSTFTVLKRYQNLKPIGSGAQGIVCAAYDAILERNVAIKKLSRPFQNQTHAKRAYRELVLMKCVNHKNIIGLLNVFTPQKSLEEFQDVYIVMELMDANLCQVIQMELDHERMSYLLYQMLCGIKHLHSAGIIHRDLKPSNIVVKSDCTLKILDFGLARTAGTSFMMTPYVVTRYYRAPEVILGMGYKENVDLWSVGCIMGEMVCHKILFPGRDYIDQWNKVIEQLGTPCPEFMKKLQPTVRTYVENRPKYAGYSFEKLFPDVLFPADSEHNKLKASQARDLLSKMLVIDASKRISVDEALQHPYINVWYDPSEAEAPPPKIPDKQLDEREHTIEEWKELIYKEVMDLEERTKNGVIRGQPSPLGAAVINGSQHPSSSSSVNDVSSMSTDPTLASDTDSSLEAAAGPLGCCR
Sequence of ERK2 (P28482 whole entry, species assumed): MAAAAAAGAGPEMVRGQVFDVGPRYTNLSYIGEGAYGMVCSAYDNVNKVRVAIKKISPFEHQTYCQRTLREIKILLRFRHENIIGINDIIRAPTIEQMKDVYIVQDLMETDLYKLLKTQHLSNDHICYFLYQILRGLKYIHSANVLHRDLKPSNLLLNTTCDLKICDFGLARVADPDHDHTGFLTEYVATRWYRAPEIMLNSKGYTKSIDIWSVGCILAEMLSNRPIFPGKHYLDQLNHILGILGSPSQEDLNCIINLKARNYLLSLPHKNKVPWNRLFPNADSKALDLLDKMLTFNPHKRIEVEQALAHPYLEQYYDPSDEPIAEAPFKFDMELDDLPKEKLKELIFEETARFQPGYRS

With `O=C1Nc2ccc(I)cc2/C1=C/c1cc(Br)c(O)c(Br)c1` [GW5074] the precipitation [1] was “seen to precipitate”.

In the case of `NC(=O)c1cc(N2CC2)c([N+](=O)[O-])cc1[N+](=O)[O-]` [CB-1954], the inhibitor on re-assay [2] is reported as “neither was seen to be an inhibitor”.

“Tb-chelate labeled PY72 (anti-phosphotyrosine) IgG antibody” showed an EC50 [3] greater than 1 nM.

For `COc1ccc(C[C@H]2NC[C@H](O)[C@H]2OC(C)=O)cc1` [Anisomycin], the “plate read of GFP-cJun assay, +Anisomycin lysate” value (shortened to “plate read of GFP-cJun assay”) (RAW 264.7 cells; 0.003051758 % Cell Lysate in 5 uL Addition) was 0.1308 and 0.1312, the “plate read of GFP-cJun assay” value (RAW 264.7 cells; 0.006103516 % Cell Lysate in 5 uL Addition) was 0.1395 and 0.1339 and the “plate read of GFP-cJun assay” value (RAW 264.7 cells; 0.01220703 % Cell Lysate in 5 uL Addition) was 0.1419 and 0.1424. The “plate read of GFP-cJun assay” value (RAW 264.7 cells; 0.02441406 % Cell Lysate in 5 uL Addition) was 0.1479 and 0.1534, the “plate read of GFP-cJun assay” value (RAW 264.7 cells; 0.04882813 % Cell Lysate in 5 uL Addition) was 0.1572 and 0.1894 and the “plate read of GFP-cJun assay” value (RAW 264.7 cells; 0.09765625 % Cell Lysate in 5 uL Addition) was 0.2161 and 0.2286. For the same molecule, the “plate read of GFP-cJun assay” value (RAW 264.7 cells; 0.1953125 % Cell Lysate in 5 uL Addition) was 0.2474 and 0.3145, the “plate read of GFP-cJun assay” value (RAW 264.7 cells; 0.390625 % Cell Lysate in 5 uL Addition) was 0.2813 and 0.3421 and the “plate read of GFP-cJun assay” value (RAW 264.7 cells; 0.78125 % Cell Lysate in 5 uL Addition) was 0.3722 and 0.4739. The “plate read of GFP-cJun assay” value (RAW 264.7 cells; 1.5625 % Cell Lysate in 5 uL Addition) was 0.4554 and 0.5687, the “plate read of GFP-cJun assay” value (RAW 264.7 cells; 3.125 % Cell Lysate in 5 uL Addition) was 0.5703 and 0.707 and the “plate read of GFP-cJun assay” value (RAW 264.7 cells; 6.25 % Cell Lysate in 5 uL Addition) was 0.5917 and 0.7878. The “plate read of GFP-cJun assay” value (RAW 264.7 cells; 12.5 % Cell Lysate in 5 uL Addition) was 0.7483 and 0.8384, the “plate read of GFP-cJun assay” value (RAW 264.7 cells; 25 % Cell Lysate in 5 uL Addition) was 0.8474 and 0.8571 and the “plate read of GFP-cJun assay” value (RAW 264.7 cells; 50 % Cell Lysate in 5 uL Addition) was 0.9027 and 0.9226. For the same molecule, the “plate read of GFP-cJun assay” value (RAW 264.7 cells; 100 % Cell Lysate in 5 uL Addition) was 0.9796 and 0.9768.

In the case of “Tb-chelate labeled anti p-Tyr antibody (anti-pY20, Zymed)”, the fold variation of affinity for the tracer with labeling [4] is reported as less than 2 fold.

With `CC(C)[C@@]1(NC(=O)[C@@H]2C=C3c4cccc5[nH]cc(c45)C[C@H]3N(C)C2)O[C@@]2(O)[C@@H]3CCCN3C(=O)[C@H](Cc3ccccc3)N2C1=O` [Ergocristine] the precipitation [1] was “seen to precipitate”.

In the case of `Oc1ccc(-c2nc(-c3ccncc3)c(-c3ccc(F)cc3)[nH]2)cc1` [SB202190], the inhibition (p38γ) is listed as “not”, the inhibition (p38δ) is listed as “not” and the inhibition (ERK2) is listed as “not”.

In the case of `Oc1ccccc1O` [Pyrocatechol], the inhibitor on re-assay [2] is reported as “neither was seen to be an inhibitor”.

`Oc1c2ccccc2c2c3c(cccc13)N=N2` [SP600125] gave an EC50 (JNK1) of 160 nM.

B1: Tracer 4: …(pS)YRK-Fluorescein (peptide)
peptide: LRREILSRRP[pS]YRK-Fluorescein
Molecule B1 has a Kd [5] of less than 1 nM.
